Data from patent publication USRE47689E1, “Compounds for treating spinal muscular atrophy” (PTC Therapeutics, Inc., priority 2011, dated 2019).
Read-outs that look alike come from different tables or passages of the source.

Legend:
[1] = system: SMN2 minigene (full length SMN2 minigene mRNA containing SMN2 exon 7); experiment: SMN2 minigene mRNA splicing RT-qPCR assay in cultured cells; assay type: cell-based, human; conditions: Homo sapiens, HEK293-H, read-out: EC1.5x for production of full length SMN2 mRNA
Summary of the method: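 Full-length SMN2 minigene mRNA (exon 7 included), minigene-specific and not endogenous SMN, quantified by RT-qPCR multiplexed with GAPDH in stably transfected HEK293H cells after 24 h compound exposure at 37° C. Abundance from efficiency-corrected Ct, normalized to GAPDH and vehicle; EC1.5x reported as star bins.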

[2] = system: Smn protein; experiment: Smn protein assay in cultured cells (SMN HTRF); assay type: cell-based, human; conditions: for EC1.5x (concentration giving 1.5-fold Smn protein increase): read-out: EC1.5x for Smn protein expression
Summary of the method: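 Smn in SMA fibroblast lysates, measured by anti-SMN HTRF after 48 h compound exposure; EC1.5x from fold change over vehicle.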

[3] = HEK293H cells stably transfected with SMN2-A minigene, 24 hours, 7-point concentration curve, 1.5-fold relative to vehicle-treated cells
[4] = SMA Type 1 patient fibroblast cells (GM03813), 48 hours, 7-point concentration curve, SMN HTRF, concentration producing 1.5 times Smn protein vs DMSO vehicle control
[5] = SMA patient fibroblast cells, 48 hours, 7-point concentration data, fold increase relative to vehicle control (SMN HTRF)

| melting point | Compound | EC (1.5-fold) [1, 3] | EC1.5x (concentration giving 1.5-fold Smn protein increase) [2, 4] | maximum fold (Fold) increase of Smn protein [2, 5] | EC (1.5-fold) ([1]; 24 h) | maximum fold (Fold) increase of Smn protein [2] | EC1.5x (concentration giving 1.5-fold Smn protein increase) [2] |
| --- | --- | --- | --- | --- | --- | --- | --- |
| 248 to 250 °C | C[C@@H]1CN(c2ccc3cc(-c4cn5ccncc5n4)c(=O)oc3c2)C[C@H](C)N1 [Compound 417, 7-[(3R,5S)-3,5-dimethylpiperazin-1-yl]-3-(imidazo[1,2-a]pyrazin-2-yl)-2H-chromen-2-one] | 0.1 to 0.3 µM | < 300 nM | *** (fold increase between >1.35 and ≤1.5) | – | – | – |
| 192 to 202 °C | Cc1cn2cc(-c3cc4ccc(N(C)[C@H]5CCNC5)cc4oc3=O)nc2c(C)n1 [Cpd 620, 3-(6,8-dimethylimidazo[1,2-a]pyrazin-2-yl)-7-{methyl[(3S)-pyrrolidin-3-yl]amino}-2H-chromen-2-one] | < 0.1 µM | < 300 nM | **** (fold increase between >1.5 and ≤1.65) | – | – | – |
| 252 to 255 °C | Cc1ccc2nc(-c3cc4ccc(N5CCCNCC5)cc4oc3=O)cn2n1 [Compound 631, 7-(1,4-diazepan-1-yl)-3-(6-methylimidazo[1,2-b]pyridazin-2-yl)-2H-chromen-2-one] | 0.3 to 1 µM | – | * (maximum fold increase of ≤1.2) | – | – | – |
| 116 to 119 °C | CCN(CC)Cc1ccc2cc(-c3nc4ccccc4s3)c(=O)oc2c1 [Compound 57, 3-(1,3-benzothiazol-2-yl)-7-[(diethylamino)methyl]-2H-chromen-2-one] | 1 to 3 µM | – | ** (fold increase between >1.2 and ≤1.35) | – | – | – |
| 130 to 132 °C | COc1ccc(-c2cc3ccc(N4C[C@@H](C)N[C@@H](C)C4)cc3oc2=O)cc1OC [Compound 384, 3-(3,4-dimethoxyphenyl)-7-[(3R,5S)-3,5-dimethylpiperazin-1-yl]-2H-chromen-2-one] | 3 to 30 µM | – | * (maximum fold increase of ≤1.2) | – | – | – |
| 218 to 224 °C | C[C@H]1CN(c2ccc3cc(-c4cn5cc(F)cc(F)c5n4)c(=O)oc3c2)CCN1 [Compound 524, 3-(6,8-difluoroimidazo[1,2-a]pyridin-2-yl)-7-[(3S)-3-methylpiperazin-1-yl]-2H-chromen-2-one] | 0.3 to 1 µM | – | * (maximum fold increase of ≤1.2) | – | – | – |
| 227 to 237 °C | Cc1cc(C)c2nc(-c3cc4ccc(N5C[C@@H](C)N[C@@H](C)C5)cc4oc3=O)cn2c1 [Compound 262, 3-(6,8-dimethylimidazo[1,2-a]pyridin-2-yl)-7-[(3R,5S)-3,5-dimethylpiperazin-1-yl]-2H-chromen-2-one] | 0.3 to 1 µM | – | ** (fold increase between >1.2 and ≤1.35) | – | – | – |
| 236 to 238 °C | O=c1oc2cc(N3CCNCC3)ccc2cc1-c1cc2ccccn2n1 [Cpd 187, 7-(piperazin-1-yl)-3-(pyrazolo[1,5-a]pyridin-2-yl)-2H-chromen-2-one] | 0.3 to 1 µM | – | ** (fold increase between >1.2 and ≤1.35) | – | – | – |
| 118 to 120 °C | COc1ccc(-c2cc3c(F)cc(N4CCN[C@@H](C)C4)cc3oc2=O)cc1OC [Compound 464, 3-(3,4-dimethoxyphenyl)-5-fluoro-7-[(3S)-3-methylpiperazin-1-yl]-2H-chromen-2-one] | 0.1 to 0.3 µM | – | *** (fold increase between >1.35 and ≤1.5) | – | – | – |
| 258 to 261 °C | Cc1cnc2nc(-c3cc4ccc(N5CCN[C@H](C)C5)cc4oc3=O)cn2c1 [Compound 463, 3-(6-methylimidazo[1,2-a]pyrimidin-2-yl)-7-[(3R)-3-methylpiperazin-1-yl]-2H-chromen-2-one] | 0.1 to 0.3 µM | – | * (maximum fold increase of ≤1.2) | – | – | – |
| > 300 °C | Cc1csc2nc(-c3cc4ccc(N5CCNCC5)cc4oc3=O)cn12 [Compound 98, 3-(3-methylimidazo[2,1-b][1,3]thiazol-6-yl)-7-(piperazin-1-yl)-2H-chromen-2-one] | 1 to 3 µM | 1000 to 3000 nM | *** (fold increase between >1.35 and ≤1.5) | – | – | – |
| 227 to 229 °C | CC(=O)O.CC(=O)O.COc1nc(C)cn2cc(-c3cc4ccc(N5CCN(C)[C@H](C)C5)cc4oc3=O)nc12 [Compound 759, 7-[(3R)-3,4-dimethylpiperazin-1-yl]-3-(8-methoxy-6-methylimidazo[1,2-a]pyrazin-2-yl)-2H-chromen-2-one acetate (1:2)] | < 0.1 µM | – | *** (fold increase between >1.35 and ≤1.5) | – | – | – |
| 186 to 189 °C | CN1CCCN(c2ccc3cc(-c4cn5cc(Cl)ccc5n4)c(=O)oc3c2)CC1 [Compound 92, 3-(6-chloroimidazo[1,2-a]pyridin-2-yl)-7-(4-methyl-1,4-diazepan-1-yl)-2H-chromen-2-one] | 1 to 3 µM | – | *** (fold increase between >1.35 and ≤1.5) | – | – | – |
| 230 to 235 °C | Cc1cn2cc(-c3cc4ccc(O[C@@H]5CCNC5)cc4oc3=O)nc2s1.Cl.Cl [Compound 325, 3-(2-methylimidazo[2,1-b][1,3]thiazol-6-yl)-7-[(3R)-pyrrolidin-3-yloxy]-2H-chromen-2-one hydrochloride (1:2)] | 0.3 to 1 µM | – | * (maximum fold increase of ≤1.2) | – | – | – |
| 130 to 133 °C | CC(c1ccc2cc(-c3nc4ccccc4s3)c(=O)oc2c1)N(C)C (centres unmarked) [Cpd 143, 3-(1,3-benzothiazol-2-yl)-7-[1-(dimethylamino)ethyl]-2H-chromen-2-one] | 1 to 3 µM | – | *** (fold increase between >1.35 and ≤1.5) | – | – | – |
| 276 to 286 °C | Cc1cc(F)c2nc(-c3cc4ccc(N5CCNCC5)cc4oc3=O)cn2c1 [Compound 356, 3-(8-fluoro-6-methylimidazo[1,2-a]pyridin-2-yl)-7-(piperazin-1-yl)-2H-chromen-2-one] | < 0.1 µM | – | ** (fold increase between >1.2 and ≤1.35) | – | – | – |
| 230 to 235 °C | Cc1cn2cc(-c3cc4ccc(N5CCN(C6COC6)CC5)cc4oc3=O)nc2c(C)n1 [Compound 823, 3-(6,8-dimethylimidazo[1,2-a]pyrazin-2-yl)-7-[4-(oxetan-3-yl)piperazin-1-yl]-2H-chromen-2-one] | 0.3 to 1 µM | 1000 to 3000 nM | **** (fold increase between >1.5 and ≤1.65) | – | – | – |

| Compound | melting point | EC (1.5-fold) [1, 3] | EC1.5x (concentration giving 1.5-fold Smn protein increase) [2, 4] | maximum fold (Fold) increase of Smn protein [2, 5] | EC (1.5-fold) ([1]; 24 h) | maximum fold (Fold) increase of Smn protein [2] | EC1.5x (concentration giving 1.5-fold Smn protein increase) [2] |
| --- | --- | --- | --- | --- | --- | --- | --- |
| Cc1cn2cc(-c3cc4ccc(C5=CCN(CCO)CC5)cc4oc3=O)nc2c(C)n1 [Compound 801, 3-(6,8-dimethylimidazo[1,2-a]pyrazin-2-yl)-7-[1-(2-hydroxyethyl)-1,2,3,6-tetrahydropyridin-4-yl]-2H-chromen-2-one] | 172 to 214 °C | – | – | – | < 0.1 µM | **** (key: *: maximum fold increase of ≤1.2; **: fold increase between >1.2 and ≤1.35; ***: fold increase between >1.35 and ≤1.5; ****: fold increase between >1.5 and ≤1.65; *****: fold increase >1.65) | < 300 nM |
